For test [1], the target named is T1, RaCYP51-F5 + RaCPR (strain Y-F5/CPR and variants) (Rhizopus delemar, UniProt I1CTV4, A291V).
T1 construct: gene RO3G_16595; full-length, codon-optimized, C-terminal GGR linker and 6xHis; co-expressed with 6xHis RaCPR in S. cerevisiae ADΔΔ deleted of native ERG11; crude membranes; ~60 kDa; with NADPH--cytochrome P450 reductase
In words: inhibition of BOMCC hydrolysis in crude membranes, fluorescence. The test is classed as biochemical.

The target of test [2] is T2, RaCYP51-F1 + RaCPR (strain Y-F1/CPR) (Rhizopus delemar, UniProt I1CF49).
T2 construct: gene RO3G_11790; full-length, codon-optimized, C-terminal GGR linker and 6xHis; co-expressed with 6xHis RaCPR in S. cerevisiae ADΔΔ deleted of native ERG11; crude membranes; ~60 kDa; with NADPH--cytochrome P450 reductase
The test is described as above. The test is classed as biochemical.
Source text: inhibition of BOMCC hydrolysis in crude membranes, fluorescence on RaCYP51-F1 + RaCPR (strain Y-F1/CPR)

Test [3] concerns the target T3, RaCYP51-F5 + RaCPR (strain Y-F5/CPR and variants) (Rhizopus delemar, UniProt I1CTV4).
T3 construct: gene RO3G_16595
The test can be described thus: biochemical. The text has this: inhibition of BOMCC hydrolysis in crude membranes, fluorescence on RaCYP51-F5 + RaCPR (strain Y-F5/CPR and variants)

In test [4] the target is T4, RaCYP51-F5 + RaCPR (strain Y-F5/CPR and variants) (Rhizopus delemar, UniProt I1CTV4, F129Y).
T4 construct: gene RO3G_16595; full-length, codon-optimized, C-terminal GGR linker and 6xHis; co-expressed with 6xHis RaCPR in S. cerevisiae ADΔΔ deleted of native ERG11; crude membranes; ~60 kDa; with NADPH--cytochrome P450 reductase
The test can be described thus: inhibition of BOMCC hydrolysis in crude membranes, fluorescence. The test is classed as biochemical.

Test [5] deals with T5, partially purified RaCYP51-F5 (Rhizopus delemar, UniProt I1CTV4).
T5 construct: gene RO3G_16595; full-length, codon-optimized, C-terminal GGR linker and 6xHis; expressed in S. cerevisiae ADΔΔ; Ni-NTA purified from n-decyl-β-D-maltoside extract; ~60 kDa
The test can be described thus: type II difference spectrum (Soret red shift). It is filed as binding. The following applies: 1.0 µM enzyme, 40 µM azole (saturating); heme iron coordination.

The target in test [6] is T6, RaCYP51-F5 + RaCPR (strain Y-F5/CPR and variants) (Rhizopus delemar, UniProt I1CTV4, A291V/F129Y).
T6 construct: gene RO3G_16595; full-length, codon-optimized, C-terminal GGR linker and 6xHis; co-expressed with 6xHis RaCPR in S. cerevisiae ADΔΔ deleted of native ERG11; crude membranes; ~60 kDa; with NADPH--cytochrome P450 reductase
In words: inhibition of BOMCC hydrolysis in crude membranes, fluorescence. The test is classed as biochemical.

The structures appear in SMILES notation. Where two headings read alike, the source gives them in different places. Where only a bound is given, the exact number is not on record here.

In general, IC50 refers to the concentration that gives 50% inhibition.

T6 sequence (I1CTV4 whole entry, stated change not applied): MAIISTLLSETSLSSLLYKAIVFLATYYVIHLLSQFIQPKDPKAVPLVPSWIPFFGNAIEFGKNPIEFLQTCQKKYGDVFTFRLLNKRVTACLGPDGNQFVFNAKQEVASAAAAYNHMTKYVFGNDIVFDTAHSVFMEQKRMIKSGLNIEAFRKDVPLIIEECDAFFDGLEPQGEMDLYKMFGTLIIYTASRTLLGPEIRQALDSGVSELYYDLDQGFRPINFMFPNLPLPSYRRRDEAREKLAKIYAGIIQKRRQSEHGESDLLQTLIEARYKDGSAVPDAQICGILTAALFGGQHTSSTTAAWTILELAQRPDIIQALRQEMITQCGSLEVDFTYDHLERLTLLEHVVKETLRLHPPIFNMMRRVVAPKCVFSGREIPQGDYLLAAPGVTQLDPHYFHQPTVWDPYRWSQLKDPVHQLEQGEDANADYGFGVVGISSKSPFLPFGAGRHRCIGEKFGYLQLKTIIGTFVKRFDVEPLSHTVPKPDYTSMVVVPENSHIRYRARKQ
T6 sequence (I1CM61 whole entry, stated change not applied, further chain): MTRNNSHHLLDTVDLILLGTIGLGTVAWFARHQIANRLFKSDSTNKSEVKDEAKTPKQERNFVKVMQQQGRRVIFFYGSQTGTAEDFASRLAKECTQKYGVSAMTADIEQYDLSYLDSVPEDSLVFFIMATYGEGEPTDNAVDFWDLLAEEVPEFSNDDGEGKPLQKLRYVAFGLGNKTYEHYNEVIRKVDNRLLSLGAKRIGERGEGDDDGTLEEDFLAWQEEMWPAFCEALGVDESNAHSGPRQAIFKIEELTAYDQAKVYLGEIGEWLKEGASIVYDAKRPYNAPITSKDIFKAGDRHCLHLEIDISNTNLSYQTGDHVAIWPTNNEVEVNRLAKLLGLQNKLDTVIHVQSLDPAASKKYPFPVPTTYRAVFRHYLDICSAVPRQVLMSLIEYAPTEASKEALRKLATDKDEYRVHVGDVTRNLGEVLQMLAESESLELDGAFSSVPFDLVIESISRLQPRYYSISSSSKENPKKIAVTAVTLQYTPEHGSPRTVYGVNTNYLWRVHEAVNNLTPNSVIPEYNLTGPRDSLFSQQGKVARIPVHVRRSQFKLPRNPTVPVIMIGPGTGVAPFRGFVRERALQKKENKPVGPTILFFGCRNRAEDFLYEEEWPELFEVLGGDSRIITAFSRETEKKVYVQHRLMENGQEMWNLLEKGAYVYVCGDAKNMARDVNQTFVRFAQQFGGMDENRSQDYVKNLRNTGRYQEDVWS
T1 sequence (I1CTV4 whole entry, stated change not applied): as the sequence (I1CTV4 whole entry, stated change not applied) above
T1 sequence (I1CM61 whole entry, stated change not applied, further chain): as the sequence (I1CM61 whole entry, stated change not applied, further chain) above
T5 sequence (I1CTV4 entry or part of it): as the sequence (I1CTV4 whole entry, stated change not applied) above
T2 sequence (I1CF49 entry or part of it): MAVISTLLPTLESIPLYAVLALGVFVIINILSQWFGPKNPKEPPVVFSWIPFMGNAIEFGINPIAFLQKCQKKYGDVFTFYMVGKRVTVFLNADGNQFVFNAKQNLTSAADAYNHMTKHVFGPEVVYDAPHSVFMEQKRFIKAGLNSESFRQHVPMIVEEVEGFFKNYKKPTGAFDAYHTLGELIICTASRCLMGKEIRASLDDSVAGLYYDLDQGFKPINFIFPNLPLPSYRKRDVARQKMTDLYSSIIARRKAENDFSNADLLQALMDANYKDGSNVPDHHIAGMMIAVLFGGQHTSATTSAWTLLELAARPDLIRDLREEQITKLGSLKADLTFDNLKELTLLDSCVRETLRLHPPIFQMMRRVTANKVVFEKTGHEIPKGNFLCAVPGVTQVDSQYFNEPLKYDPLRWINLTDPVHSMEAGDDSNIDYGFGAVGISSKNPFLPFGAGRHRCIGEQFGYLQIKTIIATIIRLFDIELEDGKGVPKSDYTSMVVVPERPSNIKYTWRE
T2 sequence (I1CM61 entry or part of it, further chain): as the sequence (I1CM61 whole entry, stated change not applied, further chain) above

As for `CC[C@@H]([C@H](C)O)n1ncn(-c2ccc(N3CCN(c4ccc(OC[C@@H]5CO[C@@](Cn6cncn6)(c6ccc(F)cc6F)C5)cc4)CC3)cc2)c1=O` [posaconazole], the IC50 was determined as 55 ± 7 nM in test [1]; 21 ± 11 nM in test [2] (read-out: Posaconazole IC50); 56 ± 28 nM in test [3]; 75 ± 35 nM in test [4]; 63 nM in test [6]. The “type II difference spectrum (Soret red shift)” value in test [5] was “bound posaconazole or voriconazole upon exposure to saturating levels of these drugs”.
For `C[C@@H](c1ncncc1F)[C@](O)(Cn1cncn1)c1ccc(F)cc1F` [voriconazole], the IC50 in test [1] is 500 nM; in test [2] (read-out: Voriconazole IC50), 100 ± 70 nM; in test [3], over 1000 nM; in test [4], 140 ± 57 nM; in test [6], 60 ± 14 nM. The “type II difference spectrum (Soret red shift)” value in test [5] is “bound posaconazole or voriconazole upon exposure to saturating levels of these drugs”.

Values taken from PMC12777571, “The molecular basis of intrinsic resistance to azoles in Rhizopus arrhizus” (Antimicrobial Agents and Chemotherapy, 2025).
